This note sets out measurements from ChEMBL document CHEMBL1201862, “PubChem BioAssay data set” (2004).

Test systems include SK-MEL-28; EKVX; NCI-H23; SK-MEL-2; OVCAR-3; 786-0; RPMI-8226; MOLT-4; Malme-3M; OVCAR-5; HCT-15; HT-29; SN12C; ACHN; OVCAR-8; SR; RXF 393.
What all share (assay): growth of human tumour cells (NCI), 48 h

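Tested at 5 concentrations; 48 h exposure; 96-well plates; endpoints linearly interpolated, else capped at highest concentration. GI50 marks 50% less growth.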 Activity calls are given as the source filed them. Rule as the data show it: active = GI50 up to about 1.1 µM and inactive = higher.

As for `COc1ccc(/C=C2\Cc3ccccc3C2=O)cc1OC`, the GI50 in the assay on SK-MEL-28 was > 100 µM (inactive); in the assay on EKVX, > 100 µM (inactive); in the assay with NCI-H23 it was 91.6 µM (inactive); in the assay with SK-MEL-2, > 100 µM (inactive); in the assay with OVCAR-3, > 100 µM (inactive); in the assay with 786-0, > 100 µM (inactive). In addition, the GI50 was > 100 µM (inactive) with RPMI-8226; > 100 µM (inactive) with MOLT-4; > 100 µM (inactive) with Malme-3M; > 100 µM (inactive) in the assay with OVCAR-5; above 100 µM with HCT-15; > 100 µM (inactive) with HT-29. Moreover, the GI50 in the assay on SN12C, in the assay on ACHN and with OVCAR-8 was > 100 µM (inactive) in each case.

In the case of `COC(=O)C(Cc1nc2ccccc2nc1O)/C(=N\NC(C)(C)C)C(=O)Nc1c(C)cc(Br)cc1C` (stereo not drawn), the GI50 with SK-MEL-28 is 20 µM (inactive); in the assay on EKVX, 36.4 µM (inactive); in the assay with NCI-H23, 25.2 µM (inactive); with SK-MEL-2, 31 µM (inactive); in the assay on OVCAR-3, > 10 µM (inactive); in the assay with 786-0, 17.5 µM (inactive). Also, the GI50 in the assay with RPMI-8226 is 35.2 µM (inactive); with MOLT-4 it was 1.5 µM (inactive); with Malme-3M, 27.6 µM (inactive); in the assay on OVCAR-5, > 100 µM (inactive); with HCT-15, 23.4 µM; in the assay on HT-29, 30.5 µM (inactive). Further, the GI50 in the assay on SN12C was 42.7 µM (inactive); in the assay with ACHN it was 32.9 µM (inactive); in the assay on SR, 20.5 µM (inactive); with OVCAR-8, 21.9 µM (inactive).

For `CC(C)=CCC/C(C)=C/CC/C(C)=C/CCC1(C)CCC([C@H](C)C(=O)O)OO1.CC1=C(CC/C(C)=C/CCC2(C)CCC([C@H](C)C(=O)O)OO2)C(C)(C)CCC1` (stereo partly drawn), the GI50 in the assay with SK-MEL-28, with EKVX, with NCI-H23, with SK-MEL-2, in the assay with OVCAR-3 and in the assay with 786-0 was > 100 µM (inactive) in each case. The GI50 in the assay on RXF 393, with Malme-3M, in the assay on OVCAR-5, in the assay on HT-29, in the assay on SN12C and in the assay with ACHN was > 100 µM (inactive) throughout. Also, the GI50 in the assay on OVCAR-8 was > 100 µM (inactive).

With `O=C1N=C2N=C(c3ccc(Cl)cc3)N(c3ccc(Cl)cc3)N2Sc2ccccc21`, the GI50 in the assay with SK-MEL-28, with EKVX, in the assay on NCI-H23, in the assay with SK-MEL-2, in the assay on OVCAR-3 and in the assay on 786-0 was > 100 µM (inactive) in each case. Besides, the GI50 with RPMI-8226 was > 100 µM (inactive); in the assay on RXF 393 it was 32.8 µM (inactive); in the assay with MOLT-4, > 100 µM (inactive); with Malme-3M it was > 100 µM (inactive); with OVCAR-5 it was > 100 µM (inactive); in the assay with HCT-15 it was above 100 µM. The GI50 in the assay on HT-29, in the assay with SN12C, with ACHN and with OVCAR-8 was > 100 µM (inactive) in each case.

Turning to `CC1(C2CCC3(C)C(C2)C3Sc2ccccc2)OCCO1` (stereo not drawn), the GI50 is 24.9 µM (inactive) with SK-MEL-28; 26.7 µM (inactive) with EKVX; 22.4 µM (inactive) in the assay with NCI-H23; 16.8 µM (inactive) with SK-MEL-2; 14.4 µM (inactive) in the assay with OVCAR-3; 15.1 µM (inactive) in the assay on 786-0. The GI50 with RPMI-8226 is 13.5 µM (inactive); with RXF 393, 15 µM (inactive); in the assay with MOLT-4 it was 18 µM (inactive); in the assay on Malme-3M, 18.3 µM (inactive); with OVCAR-5, 20.5 µM (inactive); in the assay on HCT-15, 31.9 µM. The GI50 with HT-29 is 17.5 µM (inactive); in the assay with SN12C, 20.4 µM (inactive); in the assay with ACHN, 20.7 µM (inactive); with OVCAR-8, 31.8 µM (inactive).

As to `CSc1nc(NC2OC(COC(C)=O)C(OC(C)=O)C(OC(C)=O)C2OC(C)=O)c2c(n1)OCC2=O` (stereo not drawn), the GI50 with SK-MEL-28, with NCI-H23, in the assay on SK-MEL-2, in the assay on OVCAR-3, with 786-0 and in the assay on RPMI-8226 was > 100 µM (inactive) in each case. Further, the GI50 in the assay with MOLT-4 was > 100 µM (inactive); in the assay with Malme-3M it was > 100 µM (inactive); in the assay with OVCAR-5, > 100 µM (inactive); in the assay with HCT-15 it was above 100 µM; in the assay on HT-29, > 100 µM (inactive); in the assay on SN12C, > 100 µM (inactive). Moreover, the GI50 in the assay on ACHN, with SR and in the assay with OVCAR-8 was > 100 µM (inactive) each time.

In the case of `CCNC(=O)OCc1c(COC(=O)NCC)c(-c2ccc(Cl)c(Cl)c2)n2c1CCC2`, the GI50 in the assay with SK-MEL-28 was 14.9 µM (inactive); with NCI-H23, 8.05 µM (inactive); with SK-MEL-2, 13.1 µM (inactive); with OVCAR-3 it was 17.6 µM (inactive); in the assay with 786-0 it was 8.63 µM (inactive); with RPMI-8226, 7.18 µM (inactive). Further, the GI50 is 5.06 µM (inactive) in the assay on MOLT-4; 16.6 µM (inactive) in the assay with Malme-3M; 20.3 µM (inactive) in the assay on OVCAR-5; 13.6 µM in the assay on HCT-15; 18.3 µM (inactive) with HT-29; 4.88 µM (inactive) in the assay on ACHN. The GI50 in the assay with SR was 3.21 µM (inactive); in the assay on OVCAR-8, 12.6 µM (inactive).

For `CO/N=C/c1cc(OC)c(OC)c(OC)c1`, the GI50 in the assay on SK-MEL-28, with EKVX, with NCI-H23, with SK-MEL-2, with OVCAR-3 and in the assay on 786-0 was > 100 µM (inactive) each time. Besides, the GI50 in the assay on RPMI-8226 is > 100 µM (inactive); in the assay with MOLT-4 it was > 100 µM (inactive); with Malme-3M it was > 100 µM (inactive); in the assay on OVCAR-5, > 100 µM (inactive); in the assay with HCT-15, above 100 µM; in the assay with HT-29, > 100 µM (inactive). Besides, the GI50 in the assay on SN12C, in the assay on ACHN, in the assay on SR and in the assay on OVCAR-8 was > 100 µM (inactive) throughout.

Regarding `CCOC(=O)[C@H](Cc1ccccc1)NC(=O)c1nc[nH]c1[N+](=O)[O-]`, the GI50 with SK-MEL-28, in the assay with EKVX, in the assay with NCI-H23, with SK-MEL-2, with OVCAR-3 and in the assay on 786-0 was > 100 µM (inactive) throughout. In addition, the GI50 in the assay with RPMI-8226 was > 100 µM (inactive); with MOLT-4 it was > 100 µM (inactive); in the assay on Malme-3M, > 100 µM (inactive); in the assay with HCT-15, above 100 µM; with HT-29, > 100 µM (inactive); in the assay with SN12C it was > 100 µM (inactive). In addition, the GI50 with ACHN, with SR and in the assay on OVCAR-8 was > 100 µM (inactive) each time.

With `C=CC1[C@H]2COC(C)(C)O[C@@H]2CC(=O)C1(C)C` (stereo partly drawn), the GI50 is > 100 µM (inactive) in the assay with SK-MEL-28; 54.2 µM (inactive) in the assay with EKVX; > 100 µM (inactive) in the assay with NCI-H23; > 100 µM (inactive) in the assay on SK-MEL-2; 72.9 µM (inactive) in the assay on 786-0; 94.8 µM (inactive) in the assay on RXF 393. In addition, the GI50 is > 100 µM (inactive) in the assay with Malme-3M; > 100 µM (inactive) in the assay with OVCAR-5; > 100 µM (inactive) in the assay on HT-29; > 100 µM (inactive) in the assay with SN12C; 94 µM (inactive) in the assay with ACHN; > 100 µM (inactive) in the assay with OVCAR-8.
